Results reported in patent US20010014462A1, “Direct cholesterol esterase assay” (priority 1997, published 2001).
Where two headings read alike, the source gives them in different places. Values belong to the compound of their own block, whether it stands above or below them.

Experiments:
[1] = molecular target: chloramphenicol acetyltransferase (EC 2.3.1.28) (Escherichia coli, UniProt P62577); assay: Microtitre chromogenic detection of chloramphenicol acetyltransferase (Example 10); format: biochemical; details: Chloramphenicol acetyl transferase 5U/10 μl
Sequence of chloramphenicol acetyltransferase (EC 2.3.1.28) (P62577 whole entry, looked up): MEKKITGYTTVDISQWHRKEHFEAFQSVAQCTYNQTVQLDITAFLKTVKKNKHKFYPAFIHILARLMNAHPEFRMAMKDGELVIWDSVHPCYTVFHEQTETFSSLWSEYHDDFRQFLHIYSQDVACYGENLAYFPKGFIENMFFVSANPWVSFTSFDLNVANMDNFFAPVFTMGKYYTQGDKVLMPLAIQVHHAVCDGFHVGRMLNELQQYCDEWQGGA
From the text: In a preferred assay of the invention, the enzyme chloramphenicol acetyl transferase (CAT enzyme) reacts with chloramphenicol and […] in the presence of the indicator dimethylthiazol tetrazolium (MTT) and phenazine methosulfate (PMS). The MTT serves as a hydrogen acceptor in the reaction. The reaction can be written as:
CAT+chloramphenicol+acyl coA→CAT-chloramphenicol-CoA CAT-chloramphenicol-CoA+PMS→CAT+PMS.H2+acyl-chloramphenicol+HS-CoA PMS-H2+MTT→formazan+PMS.
(§1) The BCI substrate without MTT is pale blue. PMS and MTT alone are yellow. PMS and BCI is yellow+blue which is green.
Chloramphenicol acetyl transferase (5U/10 μl) was added to each substrate combination.

[2] = system: cholesterol esterase (EC3.1.1.13); assay: Microtiter chromogenic detection of cholesterol esterase (Example 7); format: biochemical; details: for Substrate preference: BCI-substrates tested; for Reaction (colour, time to detection): cholesterol esterase (0.05 U)
esterase (EC 3.1.1.1) = assay: Microtitre chromogenic detection of esterase, de-ionized H2O (Examples 2 and 3); format: biochemical; details: for Substrate preference / Speed of chromogenic reactions relative to other BCI substrates: esterase; for Substrate preference: BCI-substrates tested; for Speed of chromogenic reactions relative to other BCI substrates: similar concentration of substrates and enzymes; for Reaction (colour, time to detection): 1 unit esterase, de-ionized H2O
Method: 10 μl of esterase (1 unit) was added to substrate samples B, B′, C, C′, D, D′, and E, E′.
Five test samples were prepared.

[3] = system: beta-glucosidase (EC 3.2.1.21); details: 0.5 units glucosidase
Method: The experimental results for Experiments 1-12 are described by the color change of the experimental solution. These colors result from the interaction of the enzyme and substrate with the transfer of an electron to a tetrazolium salt. The reactive product, formazan, is detected as dark blue, black. […] The reaction detected required the enzyme, substrate and tetrazolium salt.
Five test samples were prepared. The samples A, B, C, D, E contained the following reactants:
10 μl of H2O was added to substrate sample A to serve as a control. 10 μl of β-glucosidase (0.5 units) was added to substrate samples B, C, D and E.

[4] = system: esterase activity in elastase preparation; assay: Esterase activity and/or contamination in commercial elastase preparation (Example 5); format: biochemical
Method: (§2) Elastase was serially diluted twofold to signal extinction with elastase substrate. The last dilution yielding robust signal was incubated with the competitive inhibitor elastatinal for 10 minutes—with subsequent addition of esterase substrates.

esterase (EC3.1.1.1) = assay: Microtiter chromogenic detection of esterase, PBS pH 7.4 (Example 1); format: biochemical; details: 1 unit esterase, visual
Method: as §1
Four test samples were prepared.

[5] = system: cholesterol oxidase (EC1.1.3.6); assay: Microtitre chromogenic detection of cholesterol oxidase (Example 8); format: biochemical; details: Cholesterol Oxidase 25 U/ml
From the text: as §1

[6] = system: Beta-N-acetylglucosaminidase (EC 3.2.1.30); assay: Microtitre chromogenic detection of Beta-N-acetylglucosaminidase (Example 12); format: biochemical; details: Beta-N-acetylglucoaminidase 0.125 units
From the text: as §1

[7] = system: B-glucuronidase (EC 3.2.1.31); details: PBS pH 5.0
Method: (§3) These colors result from the interaction of the enzyme and substrate with the transfer of an electron to a tetrazolium salt. The reactive product, formazan, is detected as dark blue, black. The BCI substrate without MTT is pale blue. PMS and MTT alone are yellow. PMS and BCI is yellow+blue which is green.
Four test samples were prepared. The samples A, B, C, D contained the following reactants:
10 μl of H2O was added to substrate sample A to serve as a control. 10 μl of β-glucuronidase (10 units) was added to substrate samples B, C, and D.

[8] = system: neuraminidase (EC 3.2.1.18); assay: Microtitre chromogenic detection of neuraminidase (Example 11); format: biochemical; details: neuraminidase 0.1 units
Method: as §3
10 μl of H2O was added to substrate sample A as the substrate control. 10 μl of neuraminidase (0.1 units) was added to substrate samples B, C, D and E.

elastase (EC 3.4.21.36) = molecular target: T1, elastase (EC 3.4.21.36) (Sus scrofa, UniProt P00772); assay: Elastase with elastase substrate, with or without elastatinal (Example 5); format: biochemical
T1 construct: purchased Sigma lot # 17H8005
T1 sequence (P00772 27-266): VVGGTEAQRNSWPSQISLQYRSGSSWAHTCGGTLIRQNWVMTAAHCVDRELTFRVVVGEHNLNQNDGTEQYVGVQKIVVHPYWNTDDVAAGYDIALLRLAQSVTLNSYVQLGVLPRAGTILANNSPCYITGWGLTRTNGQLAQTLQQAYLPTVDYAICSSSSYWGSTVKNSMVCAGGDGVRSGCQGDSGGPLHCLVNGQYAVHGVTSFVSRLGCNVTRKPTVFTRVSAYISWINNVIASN
Method: as §2

[9] = substrate alone (no MTT, no PMS)
[10] = substrate 5 mg/ml + H2O, PMS (no MTT)
[11] = substrate 5 mg/ml + MTT, H2O (no PMS)
[12] = substrate 5 mg/ml alone (no MTT, no PMS)
[13] = substrate 12.5 mg/ml + H2O, PMS (no MTT)
[14] = substrate 12.5 mg/ml + MTT, H2O (no PMS)
[15] = substrate 12.5 mg/ml + MTT, PMS

Compound: O=C(N[C@H](CO)[C@H](O)c1ccc([N+](=O)[O-])cc1)C(Cl)Cl [Chloramphenicol]
- Reaction (colour, time to detection) ([1]; Acetyl CoA + H2O, PMS (no MTT)): orange - red (<2 minutes)
- Reaction (colour, time to detection) ([1]; Acetyl CoA + MTT, H2O (no PMS)): orange detection (>5 minutes)
- Reaction (colour, time to detection) ([1]; Acetyl CoA + MTT, PMS): yellow

- Reaction (colour, time to detection) ([2]; substrate + H2O, PMS (no MTT)): yellow-blue (<30 minutes)
- Reaction (colour, time to detection) ([2]; substrate + MTT, H2O (no PMS)): dark blue (<30 minutes)
- Reaction (colour, time to detection) ([2]; substrate + MTT, PMS): dark blue (<20 minutes)
- Reaction (colour, time to detection) [2, 9]: pale blue (>1 hour)
- Reaction (colour, time to detection) (esterase (EC 3.1.1.1); [10]): yellow-blue (<30 minutes)
- Reaction (colour, time to detection) (esterase (EC 3.1.1.1); [11]): dark blue (<30 minutes)
- Reaction (colour, time to detection) (esterase (EC 3.1.1.1); substrate 5 mg/ml + MTT, PMS): dark blue (<20 minutes)
- Reaction (colour, time to detection) (esterase (EC 3.1.1.1); [12]): pale blue (>1 hour)
Compound: CCCC(=O)Oc1c[nH]c2ccc(Br)c(Cl)c12 [BCI-butyrate, 5-Bromo-4-chloro-3-indolyl-butyrate]
- Substrate preference ([2]; cholesterol esterase): BCI-acetate>BCI-butyrate> BCI-1,3 diacetate
- Speed of chromogenic reactions relative to other BCI substrates ([2]; cholesterol esterase, similar concentration of substrates and enzymes): much slower than the corresponding BCI-acetate reactions
- Substrate preference (esterase (EC 3.1.1.1)): BCI-acetate>BCI-butyrate> BCI-1,3 diacetate
- Speed of chromogenic reactions relative to other BCI substrates (esterase (EC 3.1.1.1)): much slower than the corresponding BCI-acetate reactions

Compound: 5-Bromo-4-chloro-3-indolyl-B-D-glucoside [BCI-glucoside]
- Reaction (colour, time to detection) [3, 10]: yellow-blue - slight change
- Reaction (colour, time to detection) [3, 11]: dark blue (<5 minutes)
- Reaction (colour, time to detection) ([3]; substrate 5 mg/ml + MTT, PMS): dark blue (<5 minutes)
- Reaction (colour, time to detection) [3, 12]: pale blue (>10 minutes)

Compound: 5-Bromo-4-chloro-3-indolyl 1,3 diacetate [BCI-1,3 diacetate]
- Substrate preference ([2]; cholesterol esterase): BCI-acetate>BCI-butyrate> BCI-1,3 diacetate
- Substrate preference (esterase (EC 3.1.1.1)): BCI-acetate>BCI-butyrate> BCI-1,3 diacetate
- Speed of chromogenic reactions relative to other BCI substrates (esterase (EC 3.1.1.1)): much slower than the corresponding BCI-acetate and slower than the BCI-butyrate reactions
- Reaction (colour, time to detection) (esterase (EC 3.1.1.1); [10]): yellow-blue
- Reaction (colour, time to detection) (esterase (EC 3.1.1.1); [11]): dark blue (>1 hour)
- Reaction (colour, time to detection) (esterase (EC 3.1.1.1); substrate 5 mg/ml + MTT, PMS): dark blue (>40 minutes)
- Reaction (colour, time to detection) (esterase (EC 3.1.1.1); [12]): pale faint blue

- Reaction with elastase preparation, no inhibitor ([4]; Elastase + H2O, MTT, PMS, BCI-acetate): dark blue (<5 minutes)
- Reaction (colour, time to detection) ([2]; substrate + H2O, PMS (no MTT)): yellow-blue (<30 see)
- Reaction (colour, time to detection) ([2]; substrate + MTT, H2O (no PMS)): dark blue (<10 sec)
- Reaction (colour, time to detection) ([2]; substrate + MTT, PMS): dark blue (instant detection)
- Reaction (colour, time to detection) [2, 9]: pale blue (>10 minutes)
- Reaction (colour, time to detection) (esterase (EC 3.1.1.1); [10]): yellow-blue (<30 sec)
- Reaction (colour, time to detection) (esterase (EC 3.1.1.1); [11]): dark blue (<10 sec)
- Reaction (colour, time to detection) (esterase (EC 3.1.1.1); substrate 5 mg/ml + MTT, PMS): dark blue (instant detection)
- Reaction (colour, time to detection) (esterase (EC 3.1.1.1); [12]): pale blue (>10 minutes)
- Reaction (colour, time to detection) (esterase (EC3.1.1.1); [13]): yellow-blue - slight change
- Reaction (colour, time to detection) (esterase (EC3.1.1.1); [14]): dark blue < 10 seconds)
- Reaction (colour, time to detection) (esterase (EC3.1.1.1); [15]): dark blue (instantaneous)
Compound: CC(=O)Oc1c[nH]c2ccc(Br)c(Cl)c12 [BCI-acetate, 5-Bromo-4-chloro-3-indolyl acetate]
- Substrate preference ([2]; cholesterol esterase): BCI-acetate>BCI-butyrate> BCI-1,3 diacetate
- Substrate preference (esterase (EC 3.1.1.1)): BCI-acetate>BCI-butyrate> BCI-1,3 diacetate

- Reaction (colour, time to detection) ([5]; Cholesterol Std 50 mg/dl + H2O, PMS (no MTT)): yellow, no color change
- Reaction (colour, time to detection) ([5]; Cholesterol Std 50 mg/dl + MTT, H2O (no PMS)): yellow, no color change
- Reaction (colour, time to detection) ([5]; Cholesterol Std 50 mg/dl + MTT, PMS): dark blue(<1 minutes)
- Reaction (colour, time to detection) ([5]; Cholesterol Std 50 mg/dl in H2O (no MTT, no PMS)): clear, no color change
Compound: CC(C)CCC[C@@H](C)[C@H]1CC[C@H]2[C@@H]3CC=C4C[C@@H](O)CC[C@]4(C)[C@H]3CC[C@]12C [cholesterol]

- Reaction (colour, time to detection) [6, 13]: green
- Reaction (colour, time to detection) [6, 14]: light blue formazan reaction
- Reaction (colour, time to detection) [6, 15]: dark blue(<2 minutes)
- Reaction (colour, time to detection) ([6]; substrate 12.5 mg/ml alone (no MTT, no PMS)): light blue (>5 minutes)
Compound: CC(=O)N[C@H]1[C@H](Oc2c[nH]c3ccc(Br)c(Cl)c23)O[C@H](CO)[C@@H](O)[C@@H]1O [BCI-acetylglucosaminide]

Compound: 5-Bromo-4-chloro-3-indolyl-B-D-glucuronide [BCI glucuronide]
- Reaction (colour, time to detection) ([7]; substrate 10 mg/ml + MTT, H2O (no PMS), 10 units glucuronidase): dark blue (<5 minutes)
- Reaction (colour, time to detection) ([7]; substrate + H2O (no MTT, no PMS), glucuronidase): pale blue (after 5 minutes)
- Reaction (colour, time to detection) ([7]; substrate + H2O, PMS (no MTT), 10 units glucuronidase): yellow-blue - slight change
- Reaction (colour, time to detection) ([7]; substrate + MTT, PMS, 10 units glucuronidase): dark blue (<5 minutes)

Compound: CC(=O)N[C@H]1[C@H]([C@H](O)[C@H](O)CO)O[C@@](Oc2c[nH]c3ccc(Br)c(Cl)c23)(C(=O)O)C[C@@H]1O [BCI-acetylneuraminic acid, 5-bromo-4-chloro-3-indolyl acetyl neuraminic acid]
- Reaction (colour, time to detection) ([8]; substrate + H2O, PMS (no MTT)): green
- Reaction (colour, time to detection) ([8]; substrate + MTT, H2O (no PMS)): light blue formazan reaction
- Reaction (colour, time to detection) ([8]; substrate + MTT, PMS): dark blue (>5 minutes)
- Reaction (colour, time to detection) ([8]; substrate in H2O (no MTT, no PMS)): pale blue (<2 minutes)

Compound: C[C@H](NC(=O)CCC(=O)O)C(=O)N[C@@H](C)C(=O)N[C@@H](C)C(=O)Nc1ccc([N+](=O)[O-])cc1 [Elastase substrate, N-succinyl-ALA-ALA-ALA p nitroanilide]
- Reaction with elastase, no inhibitor (elastase (EC 3.4.21.36); Elastase + H2O, elastase substrate): yellow

Compound: CC(C)C[C@H](NC(=O)N[C@H](C(=O)N[C@@H](CCC(N)=O)C(=O)N[C@@H](C)C=O)[C@@H]1CCNC(=N)N1)C(=O)O [Elastatinal]
- Reaction with MTT, PMS, BCI-acetate after incubation with inhibitor ([4]; Elastase + Inhibitor, incubated 10 minutes): dark blue (<5 minutes)
- Reaction with elastase substrate after incubation with inhibitor (elastase (EC 3.4.21.36); Elastase + Inhibitor, incubated 10 minutes, elastase substrate N-succinyl-ALA-ALA-ALA p nitroanilide): clear (no color >10 min.)
